Where “and” joins values, the source holds several entries; their conditions need not be identical. Equal values may be shown once.
Test system: 156681-154-R-J1-PDC complex spheroid viability
Assay: Anticancer human tumor 156681-154-R-J1-PDC patient-derived melanoma cell line growth inhibition [CLK]
Settings: for viability, T/C: stronger effect = lower value
Procedure, shortened: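 Patient-derived tumor cells grown as complex spheroids with HUVEC endothelial cells and mesenchymal stem cells, treated with drug combinations. Concentrations descend in half-log steps from near clinical Cmax, or from 10 microM if Cmax unknown.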

[1] = curve of first compound, second compound 0.0316 µM
[2] = curve of first compound, second compound 0.1 µM
[3] = curve of first compound, second compound 0.316 µM
[4] = curve of first compound, second compound 1 µM
[5] = curve of first compound, second compound 3.16 µM
[6] = curve of first compound, second compound 10 µM
[7] = second compound 0.0316 µM, first compound 0.0316 µM
[8] = second compound 0.0316 µM, first compound 0.1 µM
[9] = second compound 0.0316 µM, first compound 0.316 µM
[10] = second compound 0.0316 µM, first compound 1 µM
[11] = second compound 0.0316 µM, first compound 3.16 µM
[12] = second compound 0.0316 µM, first compound 10 µM
[13] = second compound 0.1 µM, first compound 0.0316 µM
[14] = second compound 0.1 µM, first compound 0.1 µM
[15] = second compound 0.1 µM, first compound 0.316 µM
[16] = second compound 0.1 µM, first compound 1 µM
[17] = second compound 0.1 µM, first compound 3.16 µM
[18] = second compound 0.1 µM, first compound 10 µM
[19] = second compound 0.316 µM, first compound 0.0316 µM
[20] = second compound 0.316 µM, first compound 0.1 µM
[21] = second compound 0.316 µM, first compound 0.316 µM
[22] = second compound 0.316 µM, first compound 1 µM
[23] = second compound 0.316 µM, first compound 3.16 µM
[24] = second compound 0.316 µM, first compound 10 µM
[25] = second compound 1 µM, first compound 0.0316 µM
[26] = second compound 1 µM, first compound 0.1 µM
[27] = second compound 1 µM, first compound 0.316 µM
[28] = second compound 1 µM, first compound 1 µM
[29] = second compound 1 µM, first compound 3.16 µM
[30] = second compound 1 µM, first compound 10 µM
[31] = second compound 3.16 µM, first compound 0.0316 µM
[32] = second compound 3.16 µM, first compound 0.1 µM
[33] = second compound 3.16 µM, first compound 0.316 µM
[34] = second compound 3.16 µM, first compound 1 µM
[35] = second compound 3.16 µM, first compound 3.16 µM
[36] = second compound 3.16 µM, first compound 10 µM
[37] = second compound 10 µM, first compound 0.0316 µM
[38] = second compound 10 µM, first compound 0.1 µM
[39] = second compound 10 µM, first compound 0.316 µM
[40] = second compound 10 µM, first compound 1 µM
[41] = second compound 10 µM, first compound 3.16 µM
[42] = second compound 10 µM, first compound 10 µM
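Also: spheroids exposed to the agents for seven days.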
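For viability, T/C in this document: 100% = DMSO vehicle control viability.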

`CC(Nc1ccc2c(c1)OCCn1cc(N3C(=O)OCC3C(F)F)nc1-2)C(N)=O` (centres undefined) + CNC(=O)c1ccc(Nc2nc(OC3CCCC3)c3c(-c4ccc5nc(C)oc5c4)c[nH]c3n2)c(OC)c1 gave an IC50 [1] of 452 nM, an IC50 [2] of 399 nM and an IC50 [3] of 49.4 nM. For the same compound, the IC50 [4] was less than 31.6 nM, the IC50 [5] was less than 31.6 nM and the IC50 [6] was less than 31.6 nM. For the same compound, the viability, T/C [7] was 76.8%, the viability, T/C [8] was 61% and the viability, T/C [9] was 44.5%. For the same compound, the viability, T/C [10] was 53.9%, the viability, T/C [11] was 33.1% and the viability, T/C [12] was 23.1%. For the same compound, the viability, T/C [13] was 49.9%, the viability, T/C [14] was 64.9% and the viability, T/C [15] was 47.7%. The viability, T/C [16] was 43%, the viability, T/C [17] was 26.4% and the viability, T/C [18] was 19.2%. The viability, T/C [19] was 52.7%, the viability, T/C [20] was 47% and the viability, T/C [21] was 34.1%. The viability, T/C [22] was 27.9%, the viability, T/C [23] was 24.6% and the viability, T/C [24] was 15.8%. It also gave a viability, T/C [25] of 47.5%, a viability, T/C [26] of 30% and a viability, T/C [27] of 28.1%. It also gave a viability, T/C [28] of 24.3%, a viability, T/C [29] of 19.3% and a viability, T/C [30] of 8.72%. It also gave a viability, T/C [31] of 48.3%, a viability, T/C [32] of 36.1% and a viability, T/C [33] of 27.2%. It also gave a viability, T/C [34] of 18.9%, a viability, T/C [35] of 10.7% and a viability, T/C [36] of 8.42%. It also gave a viability, T/C [37] of 33.4%, a viability, T/C [38] of 29.9% and a viability, T/C [39] of 18.1%. For the same compound, the viability, T/C [40] was 17.7%, the viability, T/C [41] was 13.9% and the viability, T/C [42] was 7.86%.
For `C=CC(=O)Nc1cc(Nc2nccc(-c3cn(C)c4ccccc34)n2)c(OC)cc1N(C)CCN(C)C`, the viability, T/C (compound 0.000949 µM) was 98.3% and 114%, the viability, T/C (compound 0.003 µM) was 88.5% and 85.6% and the viability, T/C (compound 0.00949 µM) was 96.7% and 88.3%. For the same compound, the viability, T/C (compound 0.03 µM) was 101% and 96.3%, the viability, T/C (compound 0.0949 µM) was 93.5% and 100% and the viability, T/C (compound 0.3 µM) was 80.8% and 90%. For the same compound, the IC50 (curve of compound) was greater than 300 nM.
With `CC1COCCN1c1cc(C2(S(C)(=N)=O)CC2)nc(-c2ccnc3[nH]ccc23)n1` (centres undefined) + CN1CCN(c2cc(C(=O)Nc3cc4cc(-c5cnn(C)c5)ccc4cn3)ccn2)CC1 the IC50 [1] was 1200 nM, the IC50 [2] was 1110 nM and the IC50 [3] was less than 31.6 nM. For the same compound, the IC50 [4] was less than 31.6 nM, the IC50 [5] was less than 31.6 nM and the IC50 [6] was less than 31.6 nM. The viability, T/C [7] was 94.5%, the viability, T/C [8] was 98.7% and the viability, T/C [9] was 85%. For the same compound, the viability, T/C [10] was 54%, the viability, T/C [11] was 25.6% and the viability, T/C [12] was 13%. For the same compound, the viability, T/C [13] was 88.2%, the viability, T/C [14] was 91.1% and the viability, T/C [15] was 78.2%. It also gave a viability, T/C [16] of 53.1%, a viability, T/C [17] of 22.6% and a viability, T/C [18] of 11.9%. It also gave a viability, T/C [19] of 22.2%, a viability, T/C [20] of 20.3% and a viability, T/C [21] of 19.3%. The viability, T/C [22] was 18.1%, the viability, T/C [23] was 9.6% and the viability, T/C [24] was 5.87%. The viability, T/C [25] was 0.2%, the viability, T/C [26] was 1.01% and the viability, T/C [27] was 0.26%. For the same compound, the viability, T/C [28] was 1.47%, the viability, T/C [29] was 0.89% and the viability, T/C [30] was 0.75%. For the same compound, the viability, T/C [31] was 0.13%, the viability, T/C [32] was 0.38% and the viability, T/C [33] was 0.22%. It also gave a viability, T/C [34] of 0.27%, a viability, T/C [35] of 2.37% and a viability, T/C [36] of 1.99%. For the same compound, the viability, T/C [37] was 0.16%, the viability, T/C [38] was 1.25% and the viability, T/C [39] was 0.69%. For the same compound, the viability, T/C [40] was 1.26%, the viability, T/C [41] was 1.36% and the viability, T/C [42] was 1.82%.
For `Nc1ccccc1NC(=O)c1ccc(CNC(=O)OCc2cccnc2)cc1`, the viability, T/C (compound 0.0316 µM) was 105% and 91.2%, the viability, T/C (compound 0.1 µM) was 98.8% and 108% and the viability, T/C (compound 0.316 µM) was 71.4% and 47.5%. The viability, T/C (compound 1 µM) was 40.7% and 27%, the viability, T/C (compound 3.16 µM) was 6.65% and 4.95% and the viability, T/C (compound 10 µM) was 0.46% and 0.13%. The IC50 (curve of compound) was 674 nM and 305 nM.
`C=CC(=O)N1CCN(c2nc(=O)n(-c3c(C)ccnc3C(C)C)c3nc(-c4c(O)cccc4F)c(F)cc23)C(C)C1` (centres undefined) was tested, and the viability, T/C (compound 0.0316 µM) was 99.5% and 84.9%, the viability, T/C (compound 0.1 µM) was 91.5% and 76.2% and the viability, T/C (compound 0.316 µM) was 101% and 112%. For the same compound, the viability, T/C (compound 1 µM) was 89.7% and 114%, the viability, T/C (compound 3.16 µM) was 116% and 106% and the viability, T/C (compound 10 µM) was 80.5% and 108%. It also gave an IC50 (curve of compound) greater than 10000 nM.
In the case of `CCc1c2c(nc3ccc(O)cc13)-c1cc3c(c(=O)n1C2)COC(=O)[C@]3(O)CC`, the viability, T/C (compound 0.00316 µM) is reported as 38.3% and 25.9%, the viability, T/C (compound 0.01 µM) is reported as 16.9% and 13.7% and the viability, T/C (compound 0.0316 µM) is reported as 15.6% and 16.5%. The viability, T/C (compound 0.1 µM) was 21.3% and 17.4%, the viability, T/C (compound 0.316 µM) was 16.8% and 17.7% and the viability, T/C (compound 1 µM) was 4.59% and 4.21%. The IC50 (curve of compound) was less than 3.16 nM.
In the case of `O=C(c1cc(Cc2n[nH]c(=O)c3ccccc23)ccc1F)N1CCN(C(=O)C2CC2)CC1`, the viability, T/C (compound 0.0316 µM) is reported as 92.3% and 97.7%, the viability, T/C (compound 0.1 µM) is reported as 72.3% and 78.8% and the viability, T/C (compound 0.316 µM) is reported as 72% and 85.3%. The viability, T/C (compound 1 µM) was 83.4% and 78.3%, the viability, T/C (compound 3.16 µM) was 72.3% and 90.1% and the viability, T/C (compound 10 µM) was 56.2% and 57.6%. The IC50 (curve of compound) was greater than 10000 nM.

Source: PubChem BioAssay AID2060627 (Molecular Pharmacology Branch, DTP, NCI, 2025)
